Reference: ChEMBL document CHEMBL1129053, “Synthesis and pharmacology of a very potent cannabinoid lacking a phenolic hydroxyl with high affinity for the CB2 receptor” (J Med Chem, 1996)

Tested on: Mus musculus
Assay: Compound was evaluated in vivo for Pharmacology response in the mouse model Spontaneous Activity
Type: functional

CCCCCc1cc(O)c2c(c1)OC(C)(C)[C@@H]1CCC(C)=C[C@@H]21 [DRONABINOL]
ED50: 2.9 µmol/kg
